Literature values as cited in US20030083286A1, “Bioadhesive compositions and methods for enhanced intestinal drug absorption” (priority 2001, published 2003).
Like-named read-outs stand apart in the source and are kept apart here. In the oligonucleotide strings, read from the 5' end, every base follows the letter of its sugar. An asterisk marks phosphorothioate; unmarked linkages are phosphodiester. Other units and linkages are bracketed, terminal groups are in braces. A string of capitals states the bases alone. d = 2'-deoxy (DNA)

Key:
ICAM-1 [1] = details: C8161 human melanoma cells
ICAM-1 [2] = system: ICAM-1
[3] = system: ICAM-1 over HLA-A and HLA-B; details: versus HLA-A and HLA-B
[4] = not given; remark: listed apart in the source

Substance	ICAM-1 expression (mRNA levels, northern blot) (ICAM-1 [1])	activity against Crohn's disease in humans (humans)	steroid-sparing effect on treated subjects (humans, five months post-treatment weaned from steroids and in remission)	safety in humans (in vivo)	enhanced metastatic ability of C8161 cells resulting from TNF-α treatment (C8161 cells; TNF-α treated cells)	metastatic potential of C8161 cells (C8161 cells; in vivo)	ICAM-1 expression (ICAM-1 [2]; human epidermal carcinoma cells (A431))	ICAM-1 expression (ICAM-1 [2]; human keratinocytes)	ICAM-1 expression (ICAM-1 [2]; human lung carcinoma cells (A549))	ICAM-1 expression (ICAM-1 [2]; human umbilical vein cells)	specificity for target ICAM-1 over other potential nucleic acid targets [3]	anti-inflammatory effects in animal testing ([4]; Crohn's disease, rheumatoid arthritis, psoriasis, ulcerative colitis, kidney transplant rejection)	biological activity in animal models of inflammatory disease ([4]; in vivo)
ISIS 1939: 2′-oligodeoxynucleotide, phosphorothioate backbone, 5′-CCC-CCA-CCA-CTT-CCC-CTC-TC-3′ (SEQ ID NO:2), targeted to 3′-UTR of human ICAM-1 gene (antisense CCCCCACCACTTCCCCTCTC; DNA, all phosphorothioate, methylation of C not given here)	markedly reduced ICAM-1 expression	–	–	–	–	–	–	–	–	–	–	–	–
ISIS 2302: 2′-deoxyoligonucleotide, phosphorothioate backbone, 5′-GCC-CAA-GCT-GGC-ATC-CGT-CA-3′ (SEQ ID NO:1), targeted to 3′-UTR of human ICAM-1 gene (antisense dG*dC*dC*dC*dA*dA*dG*dC*dT*dG*dG*dC*dA*dT*dC*dC*dG*dT*dC*dA)	markedly reduced ICAM-1 expression	activity against Crohn's disease	statistically significant steroid-sparing effect	good safety	eliminated the enhanced metastatic ability	decreased the metastatic potential	inhibit ICAM-1 expression	inhibit ICAM-1 expression	inhibit ICAM-1 expression	inhibit ICAM-1 expression	demonstrated specificity	strong anti-inflammatory effects	significant biological activity
